The values below come from ChEMBL document CHEMBL1139086, “Synthesis, characterization, antibacterial activity, and interaction with DNA of the vanadyl-enrofloxacin complex” (2007).

Values after ≈ are worked out from the molar mass of the structure shown.

What all share (type): functional
In one test the test system is Escherichia coli. Put plainly: Antimicrobial activity against Escherichia coli.
For another test, the system named is Pseudomonas aeruginosa. Put plainly: Antimicrobial activity against Pseudomonas aeruginosa.
The next test has as its system Staphylococcus aureus. The experiment in a line: Antimicrobial activity against Staphylococcus aureus.

`CCN1CCN(c2cc3c(cc2F)c(=O)c(C(=O)O)cn3C2CC2)CC1` [ENROFLOXACIN]: the MIC (commonly the lowest concentration found to suppress growth) in the test with Escherichia coli stood at 1 µg/mL (≈ 2.78 µM); against Pseudomonas aeruginosa, 1 µg/mL (≈ 2.78 µM); in the test with Staphylococcus aureus, 8 µg/mL (≈ 22.3 µM).
